This is an account of results in paper PMC9323974, “Palladium(II) Complexes of Substituted Salicylaldehydes: Synthesis, Characterization and Investigation of Their Biological Profile” (Pharmaceuticals, 2022).

The term MIC denotes the lowest concentration that inhibits growth of the organism.

One assay is described as follows: DPPH radical scavenging. As to conditions: compound 0.1 mM. Here is the method:
(§1) S1 Antioxidant biological assay
The antioxidant activity of the compounds was evaluated via their ability to scavenge in
vitro free radicals such as DPPH and ABTS and to reduce H2O2. All the experiments were carried
S1.1 Determination of the reducing activity of the stable radical DPPH
To an ethanolic solution of DPPH (0.1 mM) an equal volume solution of the compounds
(0.1 mM) in ethanol was added. Absolute ethanol was also used as control solution. The absorbance
at 517 nm was recorded at room temperature after 30 and 60 min, in order to examine the possible
existence of a potential time–dependence of the DPPH radical scavenging activity [S1]. The DPPH–
scavenging activity of the compounds was expressed as the percentage reduction of the absorbance
values of the initial DPPH solution (DPPH%). NDGA and BHT were used as reference compounds. […]

Assay [1] is described as follows: ABTS radical cation scavenging. As to conditions: compound 0.1 mM. Here is the method: as §1
The antioxidant activity of the compounds was evaluated via their ability to scavenge in […]
vitro free radicals such as DPPH and ABTS and to reduce H2O2. […]
S1.2 Assay of radical cation ABTS–scavenging activity
The ABTS assay was performed to determine the activity of the compounds to scavenge the […]
radical cation ABTS. Initially, a water solution of ABTS was prepared (2 mM). ABTS radical cation […]
(ABTS+·) was produced by the reaction of ABTS stock solution with potassium persulfate (0.17 […]
mM) and the mixture was stored in the dark at room temperature for 12–16 h before its use. The […]
ABTS was oxidized incompletely because the stoichiometric reaction ratio of ABTS and potassium […]
persulfate is 1:0.5. The absorbance became maximal and stable only after more than 6 h of reaction […]
although the oxidation of the ABTS started immediately. The radical was stable in this form for […]
more than 2 days when allowed to stand in the dark at room temperature. Afterwards, the ABTS+· […]
solution was diluted in ethanol to an absorbance of 0.70 at 734 nm and 10 μL of diluted compounds or standards (0.1 mM) in DMSO were added. The absorbance was recorded out exactly 1 min after […]
initial mixing [S1]. The ABTS radical scavenging activity was expressed as the percentage inhibition of the absorbance of the initial ABTS solution (ABTS%). […]

For assay [2], the system named is Bacillus subtilis ATCC 6633. Kind of assay: MIC determination. Type of assay: cell-based. As to conditions: Bacillus subtilis, ATCC6633, 24 h, read-out: MIC B. subtilis. Here is the method:
(§2) S2 Antibacterial activity
(§3) The antimicrobial activity of the compounds was evaluated by determining their respective MIC values towards two Gram–(–) (Escherichia coli NCTC 29212 (E. coli) and Xanthomonas campestris ATCC 1395 (X. campestris)) and two Gram–(+) (Staphylococcus aureus ATCC 6538 (S. aureus) and Bacillus subtilis ATCC 6633 (B. subtilis)) bacterial species. Cultures of these microbial strains were grown on a rich selective agar medium and stored at 4°C. The selective media used were Nutrient Agar or Broth for B. subtilis and S. aureus, Yeast Mold Agar or Broth for X. campestris and Luria Agar or Broth for E. coli. Cells picked from the surface of the stored cultures were used to initiate liquid pre–cultures of the same selective medium at an initial turbidity of roughly 1 McFarland unit. Pre–cultures were incubated for 24 h in a rotary shaking incubator and subsequently they were used to inoculate the test cultures used for the determination of MIC at an initial turbidity of 0.5 McFarland units. The test cultures consisted of Mueller –Hinton broth (Deben Diagnostics Ltd) containing different concentrations of the compounds.
(§4) Different concentrations were achieved as follows: the compounds were freshly dissolved in DMSO to a concentration of 1 mg mL–1 and they were diluted with DMSO, using the method of progressive double dilution. Therefore, working solutions with decreasing concentrations of the compounds under investigation were achieved. The working solutions were subsequently diluted to the final desired concentration by addition to the growth medium at a proportion of 2:98. MIC values were determined as the lowest concentrations of the tested compounds that inhibited visible growth of each respective organism after a 24 h incubation [ S3]. Bacterial growth was determined by measuring the turbidity of appropriately diluted cultures at 600 nm with reference to equally diluted sterile growth medium and the inhibition achieved was calculated by comparing the turbidity of each culture to the average of the turbidity of three non–inhibited cultures. All test cultures were grown in triplicates and for the determination of MIC, growth had to be inhibited in at least two cultures of the triplicate. Incubation temperature at all stages was 37°C except for X. campestris that was cultivated at 28°C [S4].

Assay [3] has as its system Escherichia coli NCTC 29212. Kind of assay: MIC determination. Type of assay: cell-based. As to conditions: Escherichia coli, NCTC29212, 24 h, read-out: MIC E. coli. Here is the method: as §2, §3, §4
For assay [4], the system named is Staphylococcus aureus ATCC 6538. Kind of assay: MIC determination. As to conditions: Staphylococcus aureus, ATCC6538, 24 h, read-out: MIC S. aureus. Type of assay: cell-based. Here is the method:
as §2, §3, §4

For assay [5], the system named is Xanthomonas campestris ATCC 1395. Kind of assay: MIC determination. Type of assay: cell-based. As to conditions: Xanthomonas campestris, ATCC1395, 24 h, read-out: MIC X. campestris. Here is the method:
as §2, §3, §4

For assay [6], the system named is S. aureus, B. subtilis, E. coli, X. campestris. Kind of assay: MIC stated for all tested bacterial strains. Type of assay: cell-based. As to conditions: all tested microbes; read-out: MIC. Here is the method: as §2, §3, §4
The target in assay [7] is T1, BSA (Bos taurus, UniProt P02769).
T1 construct: purchased Sigma-Aldrich Co
Kind of assay: Competitive BSA-fluorescence studies with warfarin and ibuprofen. Type of assay: binding, bovine. Here is the method: where n = the number of binding sites per albumin and K = the SA–binding constant. The K constant (M−1) is calculated from the slope in plots (ΔI/I0)/[Q] versus (ΔI/I0) and n is given by the ratio of y intercept to the slope [S9].
S4.2 Competitive SA–fluorescence studies with warfarin and ibuprofen
The competitive studies with warfarin or ibuprofen (site probes) [S10] were performed by tryptophan fluorescence quenching experiments using a fixed concentration of the BSA and site probes (3 μM) in buffer (containing 15 mM trisodium citrate and 150 mM NaCl at pH 7.0). The fluorescence emission spectra were recorded in the presence of increasing amounts of the compounds as quenchers with an excitation wavelength of 295 nm. The Scatchard equation (eq. 7) [S6] and plots were applied on the corrected SA–fluorescence emission spectra in order to determine the BSA–binding constant of the compounds in the presence of warfarin or ibuprofen.

In the next assay the target is CT DNA. As to conditions: cited from earlier work.
The subject of the next assay is EB-DNA adduct (CT DNA). As to conditions: cited from earlier work.
The target in assay [8] is T1, BSA. As to conditions: cited from earlier work.

Structures are written as SMILES. Values joined by “and” are separate entries in the source; they are usually repeats but may differ in a detail not shown here. Equal entries are not always repeated. Where two headings read alike, the source gives them in different places.

T1 sequence (P02769 25-607): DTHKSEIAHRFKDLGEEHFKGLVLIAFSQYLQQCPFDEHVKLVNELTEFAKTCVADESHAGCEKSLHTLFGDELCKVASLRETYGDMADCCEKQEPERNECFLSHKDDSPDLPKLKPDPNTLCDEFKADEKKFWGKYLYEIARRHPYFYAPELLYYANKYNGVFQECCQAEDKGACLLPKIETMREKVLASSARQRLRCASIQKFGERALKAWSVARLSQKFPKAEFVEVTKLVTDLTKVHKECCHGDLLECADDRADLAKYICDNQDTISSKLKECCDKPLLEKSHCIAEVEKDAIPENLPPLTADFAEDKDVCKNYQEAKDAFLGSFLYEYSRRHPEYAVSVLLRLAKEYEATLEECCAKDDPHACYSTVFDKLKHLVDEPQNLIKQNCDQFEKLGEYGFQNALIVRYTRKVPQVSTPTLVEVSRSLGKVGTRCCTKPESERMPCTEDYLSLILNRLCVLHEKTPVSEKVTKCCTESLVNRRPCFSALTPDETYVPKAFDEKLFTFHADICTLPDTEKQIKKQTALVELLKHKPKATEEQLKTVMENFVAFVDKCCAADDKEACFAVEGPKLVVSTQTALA

`COc1ccc(C=O)c(O)c1` [4-OMe-saloH, 4-methoxy-salicylaldehyde, reference compound]: the “DPPH% (30 min)” value in “DPPH radical scavenging” (30 min) is on record as 4.16 ± 0.10%. Further, in “DPPH radical scavenging” (60 min), the “DPPH% (60 min)” value is listed as 6.27 ± 0.25%. Moreover, the ABTS% in assay [1] came to 40.83 ± 0.44%. Also, the minimum inhibitory concentration (MIC) is > 200 µg/mL and > 1310 µM in assay [2]; > 200 µg/mL and > 1310 µM in [3]; > 200 µg/mL and > 1310 µM in [4]; > 200 µg/mL and > 1310 µM in [5]; above 200 µg/mL in assay [6]. For the same molecule, the Kd at BSA [7] was 2.43 µM; on BSA [7] (read-out: BSA-binding constant K, Marker: Ibuprofen, ibuprofen 3 μM), 12.7 µM; on BSA [7] (read-out: BSA-binding constant K, Marker: Warfarin, warfarin 3 μM), 68.5 µM. Also, the “Kb (DNA-binding constant)” value at CT DNA is 9.25 (±0.12) × 10^5 M^−1. Besides, the “KSV (Stern–Volmer constant), EB-DNA” value in the assay with EB-DNA adduct (CT DNA) is on record as 5.19 (±0.17) × 10^4 M^−1. For the same molecule, the “kq (EB-DNA quenching constant)” value with EB-DNA adduct (CT DNA) is 2.26 (±0.07) × 10^12 M^−1s^−1. In the assay on EB-DNA adduct (CT DNA), the “ΔΙ/Ι0 (%) EB-DNA fluorescence quenching” value was 62.5%. The “K BSA-binding constant” value on BSA [8] is listed as 4.11 (±0.23) × 10^5 M^−1. Further, the “kq BSA-quenching constant” value on BSA [8] is 1.16 (±0.14) × 10^13 M^−1 s^−1.
